Data from PubChem BioAssay AID2060603 (Molecular Pharmacology Branch, DTP, NCI, 2025).

Tested on: 422866-222-R5-J1-PDC spheroid viability
Assay: Anticancer human tumor 422866-222-R5-J1-PDC patient-derived pancreatic adenocarcinoma cell line growth inhibition [CLK]
Details: spheroids with HUVEC and MSC; for IC50: curve of first compound; for viability, T/C: stronger effect = lower value
Procedure, shortened: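 Multi-cell-type spheroids combined patient-derived tumor cells with HUVEC endothelial cells and human mesenchymal stem cells. Paired agents were dosed in half-log steps down from about clinical Cmax, or from 10 microM where Cmax was unknown.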
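Note: spheroids exposed to agents for seven days before readout.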

Q: With `CC(C)CC(NC(=O)C(Cc1ccccc1)NC(=O)c1cnccn1)B(O)O` (centres undefined) + CN1CCN(c2cc(C(=O)Nc3cc4cc(-c5cnn(C)c5)ccc4cn3)ccn2)CC1 as the compound, how does the IC50 (second compound 0.0316 µM) read?
A: 4.7 nM

Q: And the IC50 (second compound 0.1 µM)?
A: 5.27 nM

Q: And the IC50 (second compound 0.316 µM)?
A: 4.39 nM

Q: What about the IC50 (second compound 1 µM) of the same compound?
A: < 0.949 nM

Q: And the IC50 (second compound 3.16 µM)?
A: < 0.949 nM

Q: And the IC50 (second compound 10 µM)?
A: < 0.949 nM

Q: And the viability, T/C (second compound 0.0316 µM, first compound 0.000949 µM)?
A: 111%

Q: What about the viability, T/C (second compound 0.0316 µM, first compound 0.003 µM) of the same compound?
A: 76.2%

Q: What about the viability, T/C (second compound 0.0316 µM, first compound 0.00949 µM) of the same compound?
A: 8.95%

Q: What about the viability, T/C (second compound 0.0316 µM, first compound 0.03 µM) of the same compound?
A: 1.59%

Q: And the viability, T/C (second compound 0.0316 µM, first compound 0.0949 µM)?
A: 0.94%

Q: And the viability, T/C (second compound 0.0316 µM, first compound 0.3 µM)?
A: 0.87%

Q: What about the viability, T/C (second compound 0.1 µM, first compound 0.000949 µM) of the same compound?
A: 115%

Q: And the viability, T/C (second compound 0.1 µM, first compound 0.003 µM)?
A: 89.7%

Q: What about the viability, T/C (second compound 0.1 µM, first compound 0.00949 µM) of the same compound?
A: 8.61%

Q: What about the viability, T/C (second compound 0.1 µM, first compound 0.03 µM) of the same compound?
A: 1.61%

Q: And the viability, T/C (second compound 0.1 µM, first compound 0.0949 µM)?
A: 0.69%

Q: What about the viability, T/C (second compound 0.1 µM, first compound 0.3 µM) of the same compound?
A: 3%

Q: What about the viability, T/C (second compound 0.316 µM, first compound 0.000949 µM) of the same compound?
A: 112%

Q: What about the viability, T/C (second compound 0.316 µM, first compound 0.003 µM) of the same compound?
A: 72.7%

Q: And the viability, T/C (second compound 0.316 µM, first compound 0.00949 µM)?
A: 4.02%

Q: And the viability, T/C (second compound 0.316 µM, first compound 0.03 µM)?
A: 0.92%

Q: And the viability, T/C (second compound 0.316 µM, first compound 0.0949 µM)?
A: 0.7%

Q: What about the viability, T/C (second compound 0.316 µM, first compound 0.3 µM) of the same compound?
A: 0.68%

Q: What about the viability, T/C (second compound 1 µM, first compound 0.000949 µM) of the same compound?
A: 25.4%

Q: What about the viability, T/C (second compound 1 µM, first compound 0.003 µM) of the same compound?
A: 4.84%

Q: What about the viability, T/C (second compound 1 µM, first compound 0.00949 µM) of the same compound?
A: 1.06%

Q: What about the viability, T/C (second compound 1 µM, first compound 0.03 µM) of the same compound?
A: 0.61%

Q: What about the viability, T/C (second compound 1 µM, first compound 0.0949 µM) of the same compound?
A: 0.91%

Q: What about the viability, T/C (second compound 1 µM, first compound 0.3 µM) of the same compound?
A: 2.12%

Q: What about the viability, T/C (second compound 3.16 µM, first compound 0.000949 µM) of the same compound?
A: 9.95%

Q: What about the viability, T/C (second compound 3.16 µM, first compound 0.003 µM) of the same compound?
A: 4.26%

Q: What about the viability, T/C (second compound 3.16 µM, first compound 0.00949 µM) of the same compound?
A: 1.32%

Q: What about the viability, T/C (second compound 3.16 µM, first compound 0.03 µM) of the same compound?
A: 0.91%

Q: What about the viability, T/C (second compound 3.16 µM, first compound 0.0949 µM) of the same compound?
A: 1.14%

Q: And the viability, T/C (second compound 3.16 µM, first compound 0.3 µM)?
A: 1.2%

Q: What about the viability, T/C (second compound 10 µM, first compound 0.000949 µM) of the same compound?
A: 1.77%

Q: And the viability, T/C (second compound 10 µM, first compound 0.003 µM)?
A: 0.99%

Q: And the viability, T/C (second compound 10 µM, first compound 0.00949 µM)?
A: 1.54%

Q: And the viability, T/C (second compound 10 µM, first compound 0.03 µM)?
A: 0.44%

Q: And the viability, T/C (second compound 10 µM, first compound 0.0949 µM)?
A: 1.53%

Q: What about the viability, T/C (second compound 10 µM, first compound 0.3 µM) of the same compound?
A: 0.46%

Q: Which results are given for `O=C(c1cc(Cc2n[nH]c(=O)c3ccccc23)ccc1F)N1CCN(C(=O)C2CC2)CC1` + CN1CCN(c2cc(C(=O)Nc3cc4cc(-c5cnn(C)c5)ccc4cn3)ccn2)CC1?
A: IC50 (second compound 0.0316 µM): > 10000 nM; IC50 (second compound 0.1 µM): > 10000 nM; IC50 (second compound 0.316 µM): > 10000 nM; IC50 (second compound 1 µM): < 31.6 nM; IC50 (second compound 3.16 µM): < 31.6 nM; IC50 (second compound 10 µM): < 31.6 nM; viability, T/C (second compound 0.0316 µM, first compound 0.0316 µM): 120%; viability, T/C (second compound 0.0316 µM, first compound 0.1 µM): 112%; viability, T/C (second compound 0.0316 µM, first compound 0.316 µM): 112%; viability, T/C (second compound 0.0316 µM, first compound 1 µM): 125%; viability, T/C (second compound 0.0316 µM, first compound 3.16 µM): 102%; viability, T/C (second compound 0.0316 µM, first compound 10 µM): 84.1%; viability, T/C (second compound 0.1 µM, first compound 0.0316 µM): 122%; viability, T/C (second compound 0.1 µM, first compound 0.1 µM): 105%; viability, T/C (second compound 0.1 µM, first compound 0.316 µM): 109%; viability, T/C (second compound 0.1 µM, first compound 1 µM): 98.7%; viability, T/C (second compound 0.1 µM, first compound 3.16 µM): 95%; viability, T/C (second compound 0.1 µM, first compound 10 µM): 88.4%; viability, T/C (second compound 0.316 µM, first compound 0.0316 µM): 96.8%; viability, T/C (second compound 0.316 µM, first compound 0.1 µM): 82.2%; viability, T/C (second compound 0.316 µM, first compound 0.316 µM): 87.2%; viability, T/C (second compound 0.316 µM, first compound 1 µM): 85.5%; viability, T/C (second compound 0.316 µM, first compound 3.16 µM): 83.7%; viability, T/C (second compound 0.316 µM, first compound 10 µM): 74.8%; viability, T/C (second compound 1 µM, first compound 0.0316 µM): 26.2%; viability, T/C (second compound 1 µM, first compound 0.1 µM): 24.4%; viability, T/C (second compound 1 µM, first compound 0.316 µM): 23.4%; viability, T/C (second compound 1 µM, first compound 1 µM): 22.4%; viability, T/C (second compound 1 µM, first compound 3.16 µM): 28.3%; viability, T/C (second compound 1 µM, first compound 10 µM): 25.2%; viability, T/C (second compound 3.16 µM, first compound 0.0316 µM): 10.1%; viability, T/C (second compound 3.16 µM, first compound 0.1 µM): 11.2%; viability, T/C (second compound 3.16 µM, first compound 0.316 µM): 9.98%; viability, T/C (second compound 3.16 µM, first compound 1 µM): 8.62%; viability, T/C (second compound 3.16 µM, first compound 3.16 µM): 9.42%; viability, T/C (second compound 3.16 µM, first compound 10 µM): 12.3%; viability, T/C (second compound 10 µM, first compound 0.0316 µM): 1.86%; viability, T/C (second compound 10 µM, first compound 0.1 µM): 1.82%; viability, T/C (second compound 10 µM, first compound 0.316 µM): 2.14%; viability, T/C (second compound 10 µM, first compound 1 µM): 2.42%; viability, T/C (second compound 10 µM, first compound 3.16 µM): 3.13%; viability, T/C (second compound 10 µM, first compound 10 µM): 2.42%
